Results: patent publication US20240398812A1 (Caraway Therapeutics, Inc., priority 2021, published 2024)
pEC50: −log10 of the molar value.

Legend:
[1] = target: human TRPML1 (Homo sapiens, UniProt Q9GZU1); experiment: Fluorescent TRPML1 assay (Fluo4-AM calcium fluorescence, HEK-293 Trex cells); format: cell-based
Experimental: (§1) HEK-293 Trex cells were stably transfected with a construct consisting of the human coding sequence for TRPML1 cloned into the tet-inducible plasmid pCDNA5 T/O. Mutations were introduced into the TRPML1 sequence to facilitate expression on the cell surface (Silvia Vergarajauregui, Rosa Puertollano Traffic. 2006 March; 7 (3): 337-353). Briefly, the cells are cultured in 150 mm round tissue culture dishes containing 20 mL of media. The day before the assay the cells are rinsed with DPBS —Ca—Mg and then treated briefly with Trypsin-EDTA. The Trypsin-EDTA is diluted with growth media, and cells are counted. 38×10^6 cells are re-plated into 150 mm round tissue culture dishes in media containing 0.5 ug/mL doxycycline to induce expression of hTRPML1.
(§2) The day of the experiment cells are lifted from the plates as above and collected by centrifugation. The cells are then suspended in dye loading buffer consisting of Ringer's solution supplemented with 0.1% Pluronic Acid and 1 micromolar Fluo4-AM dye. Cells are loaded for ˜60 minutes in the dark with occasional mixing. The cells are collected by centrifugation, the loading media aspirated, and the cells resuspended in 25 mL Ringer's solution and incubated ˜60 minutes in the dark. The cells are again collected by centrifugation, rinsed in Ringer's Solution and resuspended to 0.2×10^6 cells/mL in modified Ringer's solution containing 10 mM calcium.
(§3) Compounds are dissolved to a concentration of 10 millimolar with DMSO. Compound plates are created by dispensing compounds into 384 well black wall clear bottom plates (Greiner 781091). Positive and negative controls are included on each plate. Typically, different amounts of each compound are tested ranging from 100 nanoMoles (20 micromolar final concentration) decreasing in half-log steps to 31 picoMoles (6 nanomolar final concentration). Each concentration is typically tested in triplicate.
(§4) 50 microliters of dye-loaded cells are dispensed into each well of the compound assay plate created above. The fluorescence in each well is then determined with an excitation wavelength of 480 nm and an emission wavelength of 540 nm using either a Molecular Devices SpectraMax multimode plate reader or a Hamamatsu FDSS/uCell plate imager.
(§5) The resulting fluorescence for each well is exported as an ascii file and loaded into our LIMS for analysis. The percent activity of each compound at each concentration is determined by comparison to the positive and negative control wells included in each plate.
(§6) EC50 values were calculated using a non-linear regression of Prism. In the table, “A” indicates an EC50 of less than 100 nM, “B” indicates an EC50 range from 100 nM to 500 nM; “C” indicates an EC50 range from 500 nM to 2 μM; and “D” indicates an EC50 greater than 2 μM.

[2] = target: T1, TRPML3 (Homo sapiens, UniProt Q8TDD5); experiment: Fluorescent TRPML3 assay (as for TRPML1); format: cell-based
T1 construct: expressed in transfected cells
T1 sequence (Q8TDD5 1-553): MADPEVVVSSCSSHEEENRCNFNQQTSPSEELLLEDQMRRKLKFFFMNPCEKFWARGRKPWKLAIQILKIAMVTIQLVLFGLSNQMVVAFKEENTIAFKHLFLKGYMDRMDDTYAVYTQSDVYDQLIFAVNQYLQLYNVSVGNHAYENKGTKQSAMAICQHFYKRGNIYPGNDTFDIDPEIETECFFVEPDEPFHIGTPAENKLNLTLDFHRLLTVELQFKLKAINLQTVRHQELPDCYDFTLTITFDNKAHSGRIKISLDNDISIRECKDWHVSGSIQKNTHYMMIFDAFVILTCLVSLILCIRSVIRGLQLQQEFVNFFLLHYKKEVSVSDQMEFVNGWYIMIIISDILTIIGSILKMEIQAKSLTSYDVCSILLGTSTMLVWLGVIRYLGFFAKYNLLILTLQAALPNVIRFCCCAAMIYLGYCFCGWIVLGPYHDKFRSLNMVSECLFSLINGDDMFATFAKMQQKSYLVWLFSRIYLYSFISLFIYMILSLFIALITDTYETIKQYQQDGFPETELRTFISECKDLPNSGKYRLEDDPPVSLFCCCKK
Experimental: as §1, §2, §3, §4, §5
Assays for TRPML2 and TRPML3 were performed as above for TRPML1, by substituting the appropriate TRPML2 or TRPML3 subtype for the TRPML1.
as §6

Chain of human TRPML1 (Q9GZU1 whole entry L15A/L16A/L577A/L578A, form open): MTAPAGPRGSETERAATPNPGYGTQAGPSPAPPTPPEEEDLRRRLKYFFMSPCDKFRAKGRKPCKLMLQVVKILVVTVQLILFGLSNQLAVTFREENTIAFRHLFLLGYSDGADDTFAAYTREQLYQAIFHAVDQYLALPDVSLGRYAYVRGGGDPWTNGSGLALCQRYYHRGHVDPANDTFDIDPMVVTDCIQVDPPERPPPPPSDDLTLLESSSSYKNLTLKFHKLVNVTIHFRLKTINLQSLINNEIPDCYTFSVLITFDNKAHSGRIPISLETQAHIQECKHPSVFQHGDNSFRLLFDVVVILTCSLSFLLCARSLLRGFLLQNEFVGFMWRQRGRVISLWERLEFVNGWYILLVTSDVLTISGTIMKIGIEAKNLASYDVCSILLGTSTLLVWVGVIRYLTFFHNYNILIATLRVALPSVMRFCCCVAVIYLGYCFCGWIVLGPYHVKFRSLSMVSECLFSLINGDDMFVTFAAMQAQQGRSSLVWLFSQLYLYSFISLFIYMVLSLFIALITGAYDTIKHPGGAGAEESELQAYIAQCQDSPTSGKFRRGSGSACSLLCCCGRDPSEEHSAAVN

Structure (SMILES) | pEC50 ([1]; Table 3, compounds 101-177) | pEC50 ([2]; Table 3, compounds 101-177) | pEC50 ([1]; Table 3, compounds 201-283) | pEC50 ([2]; Table 3, compounds 201-283)
CC(C)C(=O)N1C[C@H](C)N(c2ncnc3c2c(-c2ccccc2F)cn3-c2cc(Cl)ccn2)C[C@H]1C [Compound 168, 1-((2R,5S)-4-(7-(4-chloropyridin-2-yl)-5-(2-fluorophenyl)-7H-pyrrolo[2,3-d]pyrimidin-4-yl)-2,5-dimethylpiperazin-1-yl)-2-methylpropan-1-one] | > 7.00 | > 7.00 | – | –
Cc1nccnc1-c1cn(-c2cccc(Cl)c2)c2ncnc(N3C[C@@H](C)N(C(=O)CC(C)C)C[C@@H]3C)c12 [Compound 176, 1-((2R,5S)-4-(7-(3-chlorophenyl)-5-(3-methylpyrazin-2-yl)-7H-pyrrolo[2,3-d]pyrimidin-4-yl)-2,5-dimethylpiperazin-1-yl)-3-methylbutan-1-one] | 5.70 to 6.30 | < 5.70 | – | –
C[C@H]1CN(C(=O)C2(C)CC2)CCN1c1ncnc2c1c(-c1ccccn1)cn2-c1cc(C#N)ccn1 [Compound 127, (S)-2-(4-(2-methyl-4-(1-methylcyclopropane-1-carbonyl)piperazin-1-yl)-5-(pyridin-2-yl)-7H-pyrrolo[2,3-d]pyrimidin-7-yl)isonicotinonitrile] | 5.70 to 6.30 | < 5.70 | – | –
CC(C)C(=O)N1CC2(CCN(c3ncnc4c3c(-c3ccccc3F)cn4-c3cc(C#N)ccn3)C2)C1 [Compound 101, 2-(5-(2-fluorophenyl)-4-(2-isobutyryl-2,6-diazaspiro[3.4]octan-6-yl)-7H-pyrrolo[2,3-d]pyrimidin-7-yl)isonicotinonitrile] | < 5.70 | 5.70 to 6.30 | – | –
CC(C)C(=O)N1C[C@H](C)N(c2ncnc3c(-c4cc(C#N)ccn4)cn(-c4ccccc4F)c23)C[C@H]1C [Compound 213, 2-(5-(2-fluorophenyl)-4-((2S,5R)-4-isobutyryl-2,5-dimethylpiperazin-1-yl)-5H-pyrrolo [3,2-d]pyrimidin-7-yl)isonicotinonitrile] | – | – | > 7.00 | > 7.00
CC(C)C(=O)N1CCN(c2ncnc3c2c(-c2ccccc2F)cn3-c2cc(C#N)n(C)c2)[C@@H](C)C1 [Compound 157, (S)-4-(5-(2-fluorophenyl)-4-(4-isobutyryl-2-methylpiperazin-1-yl)-7H-pyrrolo[2,3-d]pyrimidin-7-yl)-1-methyl-1H-pyrrole-2-carbonitrile] | 6.30 to 7.00 | 5.70 to 6.30 | – | –
C[C@H]1CN(C(=O)C(C)(C)C)CCN1c1nccc2c1c(C1CC1)cn2-c1cccc(F)c1 [Compound 228, (S)-1-(4-(3-cyclopropyl-1-(3-fluorophenyl)-1H-pyrrolo[3,2-c]pyridin-4-yl)-3-methylpiperazin-1-yl)-2,2-dimethylpropan-1-one] | – | – | > 7.00 | > 7.00
Cc1nccnc1-c1cn(-c2cc(F)cc(F)c2)c2ncnc(N3C[C@@H](C)N(C(=O)CC(C)C)C[C@@H]3C)c12 [Compound 177, 1-((2R,5S)-4-(7-(3,5-difluorophenyl)-5-(3-methylpyrazin-2-yl)-7H-pyrrolo[2,3-d]pyrimidin-4-yl)-2,5-dimethylpiperazin-1-yl)-3-methylbutan-1-one] | 5.70 to 6.30 | < 5.70 | – | –
C[C@H]1CN(C(=O)C(C)(C)C)CCN1c1nccc2c1c(N1CCC1)cn2-c1cccc(F)c1 [Compound 227, (S)-1-(4-(3-(azetidin-1-yl)-1-(3-fluorophenyl)-1H-pyrrolo[3,2-c]pyridin-4-yl)-3-methylpiperazin-1-yl)-2,2-dimethylpropan-1-one] | – | – | > 7.00 | > 7.00
CC(C)C(=O)N1CCN(c2ncnc3c2c(N2CCCC2)cn3-c2cc(C#N)ccn2)C[C@H]1C [Compound 148, (R)-2-(4-(4-isobutyryl-3-methylpiperazin-1-yl)-5-(pyrrolidin-1-yl)-7H-pyrrolo[2,3-d]pyrimidin-7-yl)isonicotinonitrile] | 5.70 to 6.30 | 6.30 to 7.00 | – | –
CC(C)C(=O)N1CCN(c2ncnc3c2c(C2CCC2)cn3-c2cc(C#N)ccn2)[C@@H](C)C1 [Compound 150, (S)-2-(5-cyclobutyl-4-(4-isobutyryl-2-methylpiperazin-1-yl)-7H-pyrrolo[2,3-d]pyrimidin-7-yl)isonicotinonitrile] | 5.70 to 6.30 | 5.70 to 6.30 | – | –
C[C@@H]1CN(c2ncnc3c2c(C2CCC2)cn3-c2cccc(Cl)c2)[C@@H](C)CN1C(=O)C1(F)CC1 [Compound 254, ((2R,5S)-4-(7-(3-chlorophenyl)-5-cyclobutyl-7H-pyrrolo[2,3-d]pyrimidin-4-yl)-2,5-dimethylpiperazin-1-yl)(1-fluorocyclopropyl)methanone] | – | – | 5.70 to 6.30 | 5.70 to 6.30
CC(F)C(=O)N1CCN(c2ncnc3c2c(-c2ccccc2F)cn3-c2cc(C#N)ccn2)[C@@H](C)C1 (stereo partly drawn) [Compound 113, 2-(5-(2-fluorophenyl)-4-((2S)-4-(2-fluoropropanoyl)-2-methylpiperazin-1-yl)-7H-pyrrolo[2,3-d]pyrimidin-7-yl)isonicotinonitrile] | > 7.00 | 6.30 to 7.00 | – | –
CC(C)C(=O)N1CCN(c2ncnc3c2c(-c2ccccc2F)cn3-c2nccc(C#N)n2)[C@@H](C)C1 [Compound 156, (S)-2-(5-(2-fluorophenyl)-4-(4-isobutyryl-2-methylpiperazin-1-yl)-7H-pyrrolo[2,3-d]pyrimidin-7-yl)pyrimidine-4-carbonitrile] | 5.70 to 6.30 | 5.70 to 6.30 | – | –
C[C@H]1CN(C(=O)C(C)(C)O)CCN1c1ncnc2c1c(C1CC1)cn2-c1cc(C#N)ccn1 [Compound 160, (S)-2-(5-cyclopropyl-4-(4-(2-hydroxy-2-methylpropanoyl)-2-methylpiperazin-1-yl)-7H-pyrrolo[2,3-d]pyrimidin-7-yl)isonicotinonitrile] | 6.30 to 7.00 | < 5.70 | – | –
CC(C)C(=O)N1C[C@H](C)N(c2ncnc3c2c(N2CCC2)cn3-c2cc(C#N)ccn2)C[C@H]1C [Compound 275, 2-(5-(azetidin-1-yl)-4-((2S,5R)-4-isobutyryl-2,5-dimethylpiperazin-1-yl)-7H-pyrrolo[2,3-d]pyrimidin-7-yl)isonicotinonitrile] | – | – | > 7.00 | 6.30 to 7.00
C[C@H]1CN(C(=O)C(C)(C)O)CCN1c1ncnc2c1c(-c1ccccc1F)cn2-c1cc(C#N)ccn1 [Compound 159, (S)-2-(5-(2-fluorophenyl)-4-(4-(2-hydroxy-2-methylpropanoyl)-2-methylpiperazin-1-yl)-7H-pyrrolo[2,3-d]pyrimidin-7-yl)isonicotinonitrile] | > 7.00 | 6.30 to 7.00 | – | –
N#Cc1ccnc(-n2cc(-c3ccccc3F)c3c(N4CCN(C(=O)C5CC5)CC4)ncnc32)c1 [Compound 110, 2-(4-(4-(cyclopropanecarbonyl)piperazin-1-yl)-5-(2-fluorophenyl)-7H-pyrrolo[2,3-d]pyrimidin-7-yl)isonicotinonitrile] | 6.30 to 7.00 | 6.30 to 7.00 | – | –
CC(C)(O)C(=O)N1CCN(c2ncnc3c2c(-c2ccccc2F)cn3-c2cc(C#N)ccn2)C2(CC2)C1 [Compound 174, 2-(5-(2-fluorophenyl)-4-(7-(2-hydroxy-2-methylpropanoyl)-4,7-diazaspiro[2.5]octan-4-yl)-7H-pyrrolo[2,3-d]pyrimidin-7-yl)isonicotinonitrile] | > 7.00 | > 7.00 | – | –
CC(C)C(=O)N1C[C@H](C)N(c2ncnc3c2c(C2CCC2)cn3-c2cccc(F)c2)C[C@H]1C [Compound 248, 1-((2R,5S)-4-(5-cyclobutyl-7-(3-fluorophenyl)-7H-pyrrolo[2,3-d]pyrimidin-4-yl)-2,5-dimethylpiperazin-1-yl)-2-methylpropan-1-one] | – | – | < 5.70 | < 5.70
